US10023592B2, “Bromodomain inhibitors” (Celgene Quanticel Research, Inc., priority 2013, dated 2018)
One block for each compound: values may come before it.

Legend:
[1] = tested on: HL-60, human proleukemia cells; test: Cell-MTS proliferation assay, HL-60; format: cell-based; conditions: Homo sapiens, HL-60; Cell-MTS proliferation, 168 hr
How it was run: (§1)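 Cells were seeded per 96-well at densities giving ~90% confluence by day 7 (Raji 15,000, HL-60 5,000, NCI-H460 3,000) and dosed 24 hr later with an 11-point dilution, 100 μM to 2.0 nM final. Seven-day MTS colorimetric read at OD490; IC50 from background-subtracted, DMSO-normalised values.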

[2] = tested on: Raji, human Burkitts lymphoma cells; test: Cell-MTS proliferation assay, Raji; format: cell-based; conditions: Homo sapiens, Raji; Cell-MTS proliferation, 168 hr
How it was run: as §1

[3] = target: BRD4(BD1) (Homo sapiens (Human), UniProt O60885); test: In vitro enzyme inhibition assay (BRD4 AlphaScreen); format: binding; conditions: in vitro enzyme inhibition assay
How it was run: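 AlphaScreen proximity readout, using streptavidin donor and Ni-chelate acceptor beads at 5 μg/mL final, monitors biotin-H4 tetraacetylated peptide interaction with purified His-tagged BRD4.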

[4] = tested on: NCI-H460, human non-small cell lung cancer cells; test: Cell-MTS proliferation assay, NCI-H460; format: cell-based; conditions: Homo sapiens, NCI-H460; Cell-MTS proliferation, 168 hr
How it was run: as §1

SMILES: CC(C)n1cc(Oc2cc(-c3cc(S(C)(=O)=O)ccc3OCC3CC3)cn(C)c2=O)cn1 [Example 294, 5-[2-(cyclopropylmethoxy)-5-methylsulfonylphenyl]-1-methyl-3-(1-propan-2-ylpyrazol-4-yl)oxypyridin-2-one]
IC50 [1]: 500 to 5000 nM
IC50 [2]: > 5000 nM
IC50 [3]: < 500 nM
IC50 [4]: > 5000 nM

SMILES: Cn1cc(-c2cc(S(C)(=O)=O)ccc2OCC2CC2)cc(Oc2ccccc2)c1=O [Example 295, 5-[2-(cyclopropylmethoxy)-5-methylsulfonylphenyl]-1-methyl-3-phenoxypyridin-2-one]
IC50 [1]: 500 to 5000 nM
IC50 [2]: 500 to 5000 nM
IC50 [3]: < 500 nM
IC50 [4]: 500 to 5000 nM

SMILES: CCc1ccc(S(C)(=O)=O)cc1-c1ccc(=O)n(C)c1 [Example 312, 5-(2-ethyl-5-methylsulfonylphenyl)-1-methylpyridin-2-one]
IC50 [1]: > 5000 nM
IC50 [2]: > 5000 nM
IC50 [3]: 500 to 5000 nM
IC50 [4]: > 5000 nM

SMILES: CCCc1ccc(S(C)(=O)=O)cc1-c1ccc(=O)n(C)c1 [Example 313, 1-methyl-5-(5-methylsulfonyl-2-propylphenyl)pyridin-2-one]
IC50 [1]: 500 to 5000 nM
IC50 [2]: > 5000 nM
IC50 [3]: 500 to 5000 nM
IC50 [4]: > 5000 nM

SMILES: Cc1cc(-c2cc(OCC3CC3)cc(S(C)(=O)=O)c2)cn(C)c1=O [Example 325, 5-[3-(cyclopropylmethoxy)-5-methylsulfonylphenyl]-1,3-dimethylpyridin-2-one]
IC50 [1]: 500 to 5000 nM
IC50 [2]: 500 to 5000 nM
IC50 [3]: < 500 nM
IC50 [4]: > 5000 nM

SMILES: Cc1cc(-c2cc(OCCc3ccccc3)cc(S(C)(=O)=O)c2)cn(C)c1=O [Example 326, 1,3-dimethyl-5-[3-methylsulfonyl-5-(2-phenylethoxy)phenyl]pyridin-2-one]
IC50 [1]: 500 to 5000 nM
IC50 [2]: 500 to 5000 nM
IC50 [3]: < 500 nM
IC50 [4]: > 5000 nM

SMILES: Cc1cc(-c2cc(OCCC3CC3)cc(S(C)(=O)=O)c2)cn(C)c1=O [Example 327, 5-[3-(2-cyclopropylethoxy)-5-methylsulfonylphenyl]-1,3-dimethylpyridin-2-one]
IC50 [1]: 500 to 5000 nM
IC50 [2]: 500 to 5000 nM
IC50 [3]: < 500 nM
IC50 [4]: > 5000 nM

SMILES: Cc1cc(-c2cc(OC(C)c3ccccc3)cc(S(C)(=O)=O)c2)cn(C)c1=O (centres unmarked) [Example 336, 1,3-dimethyl-5-[3-methylsulfonyl-5-(1-phenylethoxy)phenyl]pyridin-2-one]
IC50 [1]: < 500 nM
IC50 [2]: 500 to 5000 nM
IC50 [3]: < 500 nM
IC50 [4]: > 5000 nM

SMILES: Cc1cc(-c2cc(O[C@H](C)c3ccccc3)cc(S(C)(=O)=O)c2)cn(C)c1=O [Example 341, 1,3-dimethyl-5-[3-methylsulfonyl-5-[(1R)-1-phenylethoxy]phenyl]pyridin-2-one]
IC50 [1]: < 500 nM
IC50 [2]: < 500 nM
IC50 [3]: < 500 nM
IC50 [4]: > 5000 nM

SMILES: CCS(=O)(=O)Nc1cc(Oc2ccc(F)cc2F)cc(-c2cc(C)c(=O)n(C)c2)c1 [Example 342, N-[3-(2,4-difluorophenoxy)-5-(1,5-dimethyl-6-oxopyridin-3-yl)phenyl]ethanesulfonamide]
IC50 [1]: < 500 nM
IC50 [2]: < 500 nM
IC50 [3]: < 500 nM
IC50 [4]: 500 to 5000 nM

SMILES: Cn1cc(-c2cc(OCc3ccccc3OC(F)F)cc(S(C)(=O)=O)c2)c2ccoc2c1=O [Example 348, 4-[3-[[2-(difluoromethoxy)phenyl]methoxy]-5-methylsulfonylphenyl]-6-methylfuro[2,3-c]pyridin-7-one]
IC50 [1]: < 500 nM
IC50 [2]: < 500 nM
IC50 [3]: < 500 nM
IC50 [4]: 500 to 5000 nM

SMILES: Cn1cc(-c2cc(OCc3ccccc3)cc(S(C)(=O)=O)c2)c2ccoc2c1=O [Example 349, 6-methyl-4-(3-methylsulfonyl-5-phenylmethoxyphenyl)furo[2,3-c]pyridin-7-one]
IC50 [1]: < 500 nM
IC50 [2]: < 500 nM
IC50 [3]: < 500 nM
IC50 [4]: > 5000 nM

SMILES: Cn1cc(-c2cc(NS(C)(=O)=O)ccc2Oc2ccc(F)cc2F)n2cncc2c1=O [Example 367, N-[4-(2,4-difluorophenoxy)-3-(7-methyl-8-oxoimidazo[1,5-a]pyrazin-5-yl)phenyl]methanesulfonamide]
IC50 [1]: < 500 nM
IC50 [2]: < 500 nM
IC50 [3]: < 500 nM
IC50 [4]: > 5000 nM

SMILES: CCS(=O)(=O)c1ccc(OCC2CC2)c(-c2cn(C)c(=O)c3cncn23)c1 [Example 368, 5-[2-(cyclopropylmethoxy)-5-ethylsulfonylphenyl]-7-methylimidazo[1,5-a]pyrazine-8-one]
IC50 [1]: < 500 nM
IC50 [2]: < 500 nM
IC50 [3]: < 500 nM
IC50 [4]: 500 to 5000 nM

SMILES: CCS(=O)(=O)Cc1ccc(Oc2ccc(F)cc2F)c(-c2cn(C)c(=O)c3cncn23)c1 [Example 369, 5-[2-(2,4-difluorophenoxy)-5-(ethylsulfonylmethyl)phenyl]-7-methylimidazo[1,5-a]pyrazin-8-one]
IC50 [1]: < 500 nM
IC50 [2]: 500 to 5000 nM
IC50 [3]: < 500 nM
IC50 [4]: > 5000 nM

SMILES: Cn1cc(-c2cc(CS(C)(=O)=O)ccc2OCC(F)(F)F)n2cncc2c1=O [Example 370, 7-methyl-5-[5-(methylsulfonylmethyl)-2-(2,2,2-trifluoroethoxy)phenyl] imidazo[1,5-a]pyrazin-8-one]
IC50 [1]: 500 to 5000 nM
IC50 [2]: 500 to 5000 nM
IC50 [3]: < 500 nM
IC50 [4]: > 5000 nM

SMILES: CCS(=O)(=O)Cc1ccc(OCC(F)(F)F)c(-c2cn(C)c(=O)c3cncn23)c1 [Example 371, 5-[5-(ethylsulfonylmethyl)-2-(2,2,2-trifluoroethoxy)phenyl]-7-methylimidazo[1,5-a]pyrazin-8-one]
IC50 [1]: 500 to 5000 nM
IC50 [2]: 500 to 5000 nM
IC50 [3]: 500 to 5000 nM
IC50 [4]: > 5000 nM

SMILES: Cn1cc(-c2cc(CS(C)(=O)=O)ccc2Oc2ccc(F)cc2F)n2cncc2c1=O [Example 372, 5-[2-(2,4-difluorophenoxy)-5-(methylsulfonylmethyl)phenyl]-7-methylimidazo[1,5-a]pyrazin-8-one]
IC50 [1]: < 500 nM
IC50 [2]: < 500 nM
IC50 [3]: < 500 nM
IC50 [4]: > 5000 nM

Continued, values first:

IC50 [1]: < 500 nM
IC50 [2]: < 500 nM
IC50 [3]: < 500 nM
IC50 [4]: > 5000 nM
SMILES: CCc1cnc(NS(=O)(=O)CC)nc1-c1cc(C)c(=O)n(C)c1 [Example 307, N-[4-(1,5-dimethyl-6-oxopyridin-3-yl)-5-ethylpyrimidin-2-yl] ethanesulfonamide]

IC50 [1]: < 500 nM
IC50 [2]: < 500 nM
IC50 [3]: < 500 nM
IC50 [4]: > 5000 nM
SMILES: CCCc1cnc(NS(=O)(=O)CC)nc1-c1cc(C)c(=O)n(C)c1 [Example 308, N-[4-(1,5-dimethyl-6-oxopyridin-3-yl)-5-propylpyrimidin-2-yl] ethanesulfonamide]

IC50 [1]: < 500 nM
IC50 [2]: < 500 nM
IC50 [3]: < 500 nM
IC50 [4]: > 5000 nM
SMILES: CCCCc1cnc(NS(=O)(=O)CC)nc1-c1cn(C)c(=O)c2ccccc12 [Example 309, N-[5-butyl-4-(2-methyl-1-oxoisoquinolin-4-yl)pyrimidin-2-yl] ethanesulfonamide]

IC50 [1]: < 500 nM
IC50 [2]: < 500 nM
IC50 [3]: < 500 nM
IC50 [4]: > 5000 nM
SMILES: CCCCc1cnc(NS(=O)(=O)CC)nc1-c1cc(C)c(=O)n(C)c1 [Example 310, N-[5-butyl-4-(1,5-dimethyl-6-oxopyridin-3-yl)pyrimidin-2-yl] ethanesulfonamide]

IC50 [1]: < 500 nM
IC50 [2]: < 500 nM
IC50 [3]: < 500 nM
IC50 [4]: > 5000 nM
SMILES: CCS(=O)(=O)Nc1cnc(OCC2CC2)c(-c2cn(C)c(=O)c3ccccc23)c1 [Example 320, N-[6-(cyclopropylmethoxy)-5-(2-methyl-1-oxoisoquinolin-4-yl)pyridin-3-yl]ethanesulfonamide]

IC50 [1]: < 500 nM
IC50 [2]: < 500 nM
IC50 [3]: < 500 nM
IC50 [4]: > 5000 nM
SMILES: Cn1cc(-c2cc(S(C)(=O)=O)cnc2OCC2CC2)c2ccccc2c1=O [Example 321, 4-[2-(cyclopropylmethoxy)-5-methylsulfonylpyridin-3-yl]-2-methylisoquinolin-1-one]

IC50 [1]: < 500 nM
IC50 [2]: < 500 nM
IC50 [3]: < 500 nM
IC50 [4]: > 5000 nM
SMILES: CCS(=O)(=O)c1cnc(OCC2CC2)c(-c2cn(C)c(=O)c3ccccc23)c1 [Example 322, 4-[2-(cyclopropylmethoxy)-5-ethylsulfonylpyridin-3-yl]-2-methylisoquinolin-1-one]

IC50 [1]: < 500 nM
IC50 [2]: 500 to 5000 nM
IC50 [3]: < 500 nM
IC50 [4]: > 5000 nM
SMILES: Cc1cc(-c2cc(OCc3ccccc3)cc(S(C)(=O)=O)c2)cn(C)c1=O [Example 324, 1,3-dimethyl-5-(3-methylsulfonyl-5-phenylmethoxyphenyl)pyridin-2-one]

IC50 [1]: < 500 nM
IC50 [2]: 500 to 5000 nM
IC50 [3]: < 500 nM
IC50 [4]: > 5000 nM
SMILES: Cc1cccc(C)c1COc1cc(-c2cc(C)c(=O)n(C)c2)cc(S(C)(=O)=O)c1 [Example 331, 5-[3-[(2,6-dimethylphenyl)methoxy]-5-methylsulfonylphenyl]-1,3-dimethylpyridin-2-one]

IC50 [1]: < 500 nM
IC50 [2]: 500 to 5000 nM
IC50 [3]: < 500 nM
IC50 [4]: > 5000 nM
SMILES: Cc1cc(-c2cc(OCc3ccccc3OC(F)F)cc(S(C)(=O)=O)c2)cn(C)c1=O [Example 333, 5-[3-[[2-(difluoromethoxy)phenyl]methoxy]-5-methylsulfonylphenyl]-1,3-dimethylpyridin-2-one]

IC50 [1]: < 500 nM
IC50 [2]: 500 to 5000 nM
IC50 [3]: < 500 nM
IC50 [4]: > 5000 nM
SMILES: Cc1cc(-c2cc(OCc3ccccc3C#N)cc(S(C)(=O)=O)c2)cn(C)c1=O [Example 334, 2-[[3-(1,5-dimethyl-6-oxopyridin-3-yl)-5-methylsulfonylphenoxy]methyl]benzonitrile]
